Experimental data taken from patent publication US6261814A, “Carboxylic acid reductase, and methods of using same” (University of Iowa Research Foundation, priority 1998, dated 2001).

Tests used:
[1] = test system: Nocardia sp. NRRL 5646; test: Induction of the enzyme by benzoate in stage two cultures; format: cell-based; details: NRRL5646, 24 h, read-out: induction of specific activity of aryl aldehyde oxidoreductase in crude extracts
Method: Shaken flask cultures were grown by a standard two stage incubation protocol (Betts et al., J. Med. Chem. 17:599-602 (1974)) in 200 ml of sterile medium held in stainless steel-capped 1-liter DeLong culture flasks. The medium, containing (wt/vol) 2% glucose, 0.5% yeast extract, 0.5% soybean flour, 0.5% NaCl, and 0.5% K2 HPO4 in distilled water, was adjusted to pH 7.2 with 6 N HCl, and then autoclaved at 121° C. for 20 min. Cultures were incubated by shaking at 250 rpm at 28° C. on New Brunswick Scientific, C25 Gyrotory shakers. A 10% inoculum derived from a 72-hour first-stage culture was used to initiate the second-stage culture, which was incubated as before. […] The culture was harvested 24 hours after the addition of benzoate, the cells were collected from the medium by centrifugation at 8,000×g for 20 min., and washed twice with 0.9% NaCl. Cell pellets were stored at -38° C. until needed. Typical wet cell yields by this cultivation process were approximately 25 g/liter.
As a result, it was determined that the specific activity of aryl aldehyde oxidoreductase in crude extracts of Nocardia sp. NRRL 5646 could be induced up to 10 fold by the addition of up to 5 mg/ml benzoate to the 24 hour, stage two cultures.

[2] = target: T1, oxidoreductase from Neurospora crassa (Neurospora crassa, UniProt Q7RW48); details: Eur. J. Biochem. 8:413 (1969); cited from earlier work
T1 construct: host or cells: crude Neurospora crassa preparation (Eur. J. Biochem. 8:413 (1969))
T1 sequence (Q7RW48 1-1052): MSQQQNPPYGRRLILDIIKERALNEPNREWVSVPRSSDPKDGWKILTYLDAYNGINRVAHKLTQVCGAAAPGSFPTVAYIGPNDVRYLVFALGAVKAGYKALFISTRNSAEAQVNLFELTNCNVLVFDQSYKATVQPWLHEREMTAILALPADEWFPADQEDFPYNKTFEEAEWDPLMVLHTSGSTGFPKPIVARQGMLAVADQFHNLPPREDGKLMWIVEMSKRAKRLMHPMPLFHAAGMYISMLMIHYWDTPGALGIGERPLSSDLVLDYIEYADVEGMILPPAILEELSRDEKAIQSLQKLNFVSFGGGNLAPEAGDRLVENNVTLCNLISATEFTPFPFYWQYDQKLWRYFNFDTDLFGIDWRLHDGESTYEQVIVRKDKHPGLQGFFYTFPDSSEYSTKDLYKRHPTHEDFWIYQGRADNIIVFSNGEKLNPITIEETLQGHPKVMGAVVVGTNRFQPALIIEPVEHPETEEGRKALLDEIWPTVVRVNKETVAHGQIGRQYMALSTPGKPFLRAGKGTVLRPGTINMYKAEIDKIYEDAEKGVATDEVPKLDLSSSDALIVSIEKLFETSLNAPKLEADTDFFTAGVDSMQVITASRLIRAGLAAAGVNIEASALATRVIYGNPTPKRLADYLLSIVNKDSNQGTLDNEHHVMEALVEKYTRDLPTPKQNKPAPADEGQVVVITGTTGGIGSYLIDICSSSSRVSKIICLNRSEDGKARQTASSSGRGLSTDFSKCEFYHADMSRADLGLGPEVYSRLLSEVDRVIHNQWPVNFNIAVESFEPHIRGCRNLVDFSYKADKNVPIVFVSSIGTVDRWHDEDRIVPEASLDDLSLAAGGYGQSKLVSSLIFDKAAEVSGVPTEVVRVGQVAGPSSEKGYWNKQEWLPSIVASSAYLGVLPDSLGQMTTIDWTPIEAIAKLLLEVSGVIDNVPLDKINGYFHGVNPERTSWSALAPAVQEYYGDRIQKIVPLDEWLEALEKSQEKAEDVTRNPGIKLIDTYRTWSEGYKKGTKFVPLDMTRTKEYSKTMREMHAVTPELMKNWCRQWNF

[3] = target: T2, carboxylic acid reductase (aryl aldehyde oxidoreductase) (Nocardia iowensis, UniProt Q6RKB1); test: Substrate specificity of crude carboxylic acid reductase (100,000×g supernatant); format: biochemical, Nocardia sp. NRRL 5646; design: Crude enzyme preparations consisting of 100,000×g supernatants were used in this study; endogenous in cells; host or cells: Nocardia sp; NRRL 5646, crude 100,000×g supernatant
T2 sequence (Q6RKB1 whole entry): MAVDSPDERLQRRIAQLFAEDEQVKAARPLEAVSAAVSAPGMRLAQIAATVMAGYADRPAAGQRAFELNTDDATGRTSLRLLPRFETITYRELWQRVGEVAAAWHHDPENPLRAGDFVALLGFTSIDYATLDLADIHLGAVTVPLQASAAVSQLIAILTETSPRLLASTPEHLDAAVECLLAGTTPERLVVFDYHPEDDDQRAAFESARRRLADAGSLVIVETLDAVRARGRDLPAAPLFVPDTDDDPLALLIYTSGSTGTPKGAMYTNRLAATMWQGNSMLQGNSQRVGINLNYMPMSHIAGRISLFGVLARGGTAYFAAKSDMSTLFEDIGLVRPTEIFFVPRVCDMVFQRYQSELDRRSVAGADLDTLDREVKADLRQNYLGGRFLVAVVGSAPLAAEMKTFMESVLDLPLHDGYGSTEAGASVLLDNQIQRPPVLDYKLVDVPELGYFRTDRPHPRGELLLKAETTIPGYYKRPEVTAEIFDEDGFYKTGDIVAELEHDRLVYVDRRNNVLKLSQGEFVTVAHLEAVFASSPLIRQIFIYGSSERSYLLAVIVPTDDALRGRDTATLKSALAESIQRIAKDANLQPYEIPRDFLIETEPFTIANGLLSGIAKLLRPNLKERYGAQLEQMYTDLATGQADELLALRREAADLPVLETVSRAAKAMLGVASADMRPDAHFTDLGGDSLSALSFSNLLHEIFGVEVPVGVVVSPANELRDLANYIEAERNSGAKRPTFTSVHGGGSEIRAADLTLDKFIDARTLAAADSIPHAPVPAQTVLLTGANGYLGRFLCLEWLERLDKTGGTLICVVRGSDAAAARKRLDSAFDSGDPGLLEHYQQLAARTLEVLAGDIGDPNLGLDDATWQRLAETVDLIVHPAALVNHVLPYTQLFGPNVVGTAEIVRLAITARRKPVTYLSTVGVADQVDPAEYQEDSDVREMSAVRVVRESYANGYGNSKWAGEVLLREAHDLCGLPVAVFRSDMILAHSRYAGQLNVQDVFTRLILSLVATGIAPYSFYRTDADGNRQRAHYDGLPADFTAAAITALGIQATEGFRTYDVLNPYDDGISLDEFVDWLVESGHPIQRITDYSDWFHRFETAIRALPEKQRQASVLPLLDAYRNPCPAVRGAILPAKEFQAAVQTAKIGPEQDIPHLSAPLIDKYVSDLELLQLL
Method: (§1) Enzyme assay. The standard aryl-aldehyde oxidoreductase assay solution contained 0.15 mM […], 1 mM ATP, and 5 mM sodium benzoate, 10 mM MgCl2 and 0.01 to 0.3 units of enzyme in 50 mM Tris-HCl buffer in a final volume of 0.7 ml. The reference cuvette contained all components except for benzoate. Enzyme reactions were initiated by adding enzyme, and they were monitored by recording the absorption decrease at 340 nm at 25° C. with a Shimadzu 160 spectrophotometer.
Crude enzyme preparations consisting of 100,000×g supernatants were used in this study. […] The relative rate of reduction for each carboxylic acid derivative is expressed as the percentage of the initial rate of benzoate reduction.
The range of oxidoreductase activities of crude, 100,000×g Nocardia extract with a variety of substrates was investigated. Various substituted 2-, 3- and 4-substituted benzoates were examined, including a range of ring-activating and ring-deactivating functional groups. Benzoates substituted with halogens, methyl, methoxy, hydroxy, acetyl, nitro, benzoyl, phenyl, and phenoxyl groups as well as aryl-ring systems containing two (naphthalene) and three (fluorene) rings, and heterocyclic aromatic acids including furoic, nicotinic and indole carboxylic acids were considered. In addition, one cinnamic acid derivative, phenyl-acetate, phenyl-malonate, phenyl-succinate and 2-phenylpropionic acid were studied.

[4] = target: T2, carboxylic acid reductase (aryl aldehyde oxidoreductase); test: Kinetic properties of the purified carboxylic acid reductase (standard enzyme assay); details: for Vmax: purified enzyme, mean of three determinations
Method: as §1
Kinetic constants were obtained by fitting experimental data with the EZ-FIT program developed by Perrella (Perrella, Anal. Biochem. 174:437-447 (1987)).
S(+)-α-Methyl-4-[2-methylpropyl]-benzeneacetic acid (ibuprofen) was from Aldrich Chemical Co. R(-) isomer of ibuprofen was a gift from Dr. Ching-Shih Chen, University of Rhode Island (Chen et al., Biochim. Biophys. Acta 1033:1-6 (1990)). […] Substrate enantiopurities were checked by specific rotation determination for each isomer (Chen and Rosazza, Appl. Environ. Microbiol. 60(4):1292-1296 (1994)).

## O=C(O)c1ccccc1 [benzoic acid]
[1]
  fold induction at 5000 µg/mL: ≤ 10
[2]
  Km: 63 µM
  benzoate concentration at which activity is inhibited: 300 µM
[3]; 5 mM substrate, 0.15 mM NADPH, 1 mM ATP, 50 mM Tris-HCl pH 7.5, percentage of the initial rate of benzoate reduction
  Relative Activity: 100 percentage
[3]; substrates of Table 2
  quality as substrate of the enzyme (in words): best substrates
[3]; typical, crude enzyme, 5 mM
  rate of benzoate reduction: 0.066 ΔA340 /min
  rate of benzoate reduction (equivalent): 10.6 µM/min
[4]; benzoate concentration up to 2 mM
  inhibition of the enzyme by benzoate: no inhibition was observed
[4]; higher than values reported by Kato et al.
  apparent Km relative to Km reported for the enzyme from Nocardia asteroides: more than 1000 fold
[4]; pseudo-first order reaction conditions
  turnover number: 126 min⁻¹
[4]
  Vmax: 0.902 ± 0.04 μmol/min/mg of protein
[4]; listed as benzoate
  Vmax: 0.902±0.04 μmol/min/mg of protein
